The record followed here is patent US5354862A, “Preparation and the use of halopropargylated cyclic quaternary ammonium compounds as antimicrobial agents” (Rohm and Haas Company, priority 1993, dated 1994).

Where two headings read alike, the source gives them in different places.

Holding throughout (experiment): Broth two-fold serial dilution MIC test
For assay [1], the system named is Pseudomonas aeruginosa. It counts as cell-based, Pseudomonas aeruginosa (ATCC 15442). The following applies: Table 2, Psae. The method, boiled down:
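Broth two-fold serial dilution MIC (500 to 0.25 ppm) was run against Pseudomonas aeruginosa, with compound from 1% stock in acetone/methanol/water 5:3:2. Vessels inoculated with standardized broth-grown cells were incubated, then scored for growth. MIC is the lowest concentration giving complete growth inhibition.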

Assay [2] concerns Escherichia coli. It counts as cell-based, Escherichia coli (ATCC 11229). The following applies: Table 2, Ecol. The method, boiled down: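 Broth two-fold serial dilutions ran from 500 down to 0.25 ppm, prepared from a stock in acetone/methanol/water (5:3:2). Each tube received a standardized bacterial suspension and was incubated at a temperature suited to the species. MIC is the lowest concentration giving complete growth inhibition.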

In assay [3] the test system is Staphylococcus aureus. It counts as cell-based, Staphylococcus aureus (ATCC 6538). The following applies: Table 2, Saur. The method, boiled down: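 Broth two-fold serial dilution from 500 ppm down to 0.25 ppm, compound delivered from acetone/methanol/water stock, inoculated with standardized cell suspension and incubated at an organism-appropriate temperature. MIC is the lowest concentration giving complete growth inhibition.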

Assay [4] relates to Aspergillus niger. The assay is classed as cell-based, Aspergillus niger (ATCC 6275). The following applies: Table 2, Anig, TSB media. The method, boiled down: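 Two-fold broth serial dilution from 500 ppm down to 0.25 ppm, compound stock in acetone/methanol/water 5:3:2. Vessels inoculated with standardized spore suspension harvested from agar slants, incubated at a species-appropriate temperature, then scored for growth/no growth. MIC is the lowest concentration giving complete growth inhibition.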

Where [5] appears, read: Pseudomonas aeruginosa, M9G media, read-out: MIC.
The mark [6] stands for this setting: Pseudomonas aeruginosa, TSB media, read-out: MIC.
Setting [7] is: Escherichia coli, TSB media, read-out: MIC.
[8] abbreviates: Staphylococcus aureus, M9G media, read-out: MIC.
Setting [9] is: Staphylococcus aureus, TSB media, read-out: MIC.
The mark [10] stands for this setting: Aspergillus niger, read-out: MIC.
Where [11] appears, read: Escherichia coli, M9G media, read-out: MIC.

`CCCCCCCCCCCCOC(=O)C[N+]1(CC#CI)CCCC1` [Compound 75, 1-(dodecyloxycarbonyl)methyl-1-(3-iodopropargyl)-pyrrolidinium methanesulfonate]: the MIC in assay [1] (M9G media) amounted to 32 ppm; in assay [1] (TSB media), 125 ppm; in assay [2] (M9G media) it was 2 ppm; in assay [2] (TSB media), 8 ppm; in assay [3] (M9G media), 0.25 ppm; in assay [3] (TSB media), 2 ppm. The compound further returned an MIC in assay [4] of 8 ppm.

Consider `CCCCCCCCCCCCCC[N+]1(CC#CI)C=NCC1.O=S(=O)([O-])c1ccccc1` (centres unmarked) [Compound 56, 1-(tetradecyl)-1-(3-iodopropargyl)-imidazolinium benzenesulfonate], for which the MIC was 8 ppm in assay [1] (M9G media); 63 ppm in assay [1] (TSB media); less than 0.25 ppm in assay [2] (M9G media); less than 0.25 ppm in assay [2] (TSB media); less than 0.25 ppm in assay [3] (M9G media); less than 0.25 ppm in assay [3] (TSB media). In assay [4], this compound gave an MIC of less than 0.25 ppm.

Take `OCCCCCCCCCCCC[N+]1(CC#CI)CCCC1` [Compound 2, 1-(12-hydroxydodecyl)-l-(3-iodopropargyl)-pyrrolidinium 4-methylbenzenesulfonate]: the MIC in assay [1] (setting [5]) is greater than 250 µg/mL; in assay [1] (setting [6]) it was greater than 250 µg/mL; in assay [2] (setting [7]) it was 250 µg/mL; in assay [3] (setting [8]) it was 32 µg/mL; in assay [3] (setting [9]), 32 µg/mL; in assay [4] (setting [10]), 32 µg/mL.

Take `CCCCCCCCCCCCCCCC[N+]1(CC#CI)CCCCC1` [Compound 60, 1-hexadecyl-1-(3-iodopropargyl)-piperidinium benzenesulfonate]: the MIC in assay [1] (M9G media) is reported as 63 ppm; in assay [1] (TSB media), 250 ppm; in assay [2] (M9G media) it was 2 ppm; in assay [2] (TSB media), 16 ppm; in assay [3] (M9G media), 1 ppm; in assay [3] (TSB media), 2 ppm. The compound further returned an MIC in assay [4] of 16 ppm.

In the case of `CCCCCCCCCCCCC[N+]1(CC#CI)CCCC1` [Compound 31, 1-tridecyl-1-(3-iodopropargyl)-pyrrolidinium benzenesulfonate], the MIC in assay [1] (M9G media) is recorded as 32 ppm; in assay [1] (TSB media), 32 ppm; in assay [2] (M9G media), 1 ppm; in assay [2] (TSB media) it was 16 ppm; in assay [3] (M9G media) it was 0.5 ppm; in assay [3] (TSB media), less than 0.25 ppm. Further, the MIC in assay [4] was found to be 1 ppm.

For the compound `CCCCCCCCCCCC[N+]1(CC#CI)CCCC1` [Compound 79, 1-dodecyl-1-(3-iodopropargyl)-pyrrolidinium bromide], the MIC is given as 32 ppm in assay [1] (M9G media); 64 ppm in assay [1] (TSB media); 1 ppm in assay [2] (M9G media); 4 ppm in assay [2] (TSB media); 0.25 ppm in assay [3] (M9G media); 1 ppm in assay [3] (TSB media). The MIC in assay [4] turned out to be 2 ppm.

Take `CCCCCCCCCCCCCCC[N+]1(CC#CI)CCCC1` [Compound 33, 1-pentadecyl-1-(3-iodopropargyl)-pyrrolidinium benzenesulfonate]: the MIC is recorded as 8 ppm in assay [1] (M9G media); 32 ppm in assay [1] (TSB media); 1 ppm in assay [2] (M9G media); 2 ppm in assay [2] (TSB media); less than 0.25 ppm in assay [3] (M9G media); less than 0.25 ppm in assay [3] (TSB media). For the same compound, the MIC in assay [4] is recorded as less than 0.25 ppm.

Take `IC#CC[N+]1(Cc2ccccc2)CCOCC1` [Compound 74, 4-benzyl-4-(3-iodopropargyl)-morpholinium methanesulfonate]: the MIC is greater than 500 ppm in assay [1] (M9G media); greater than 500 ppm in assay [1] (TSB media); 64 ppm in assay [2] (M9G media); 125 ppm in assay [2] (TSB media); 125 ppm in assay [3] (M9G media); 250 ppm in assay [3] (TSB media). This compound also registered an MIC in assay [4] of 64 ppm.

With `CCCCCCCCCCCCOC(=O)C[N+]1(CC#CI)CCOCC1` [Compound 68, 4-(dodecyloxycarbonyl)methyl-4-(3-iodopropargyl)-morpholinium 4-methylbenzenesulfonate], the MIC in assay [1] (setting [5]) turned out to be 32 µg/mL; in assay [1] (setting [6]), 64 µg/mL; in assay [2] (setting [11]) it was 2 µg/mL; in assay [2] (setting [7]), 8 µg/mL; in assay [3] (setting [8]), 0.5 µg/mL; in assay [3] (setting [9]) it was 2 µg/mL. Besides, in assay [4] (setting [10]), the MIC is 16 µg/mL.

For `CCCCCCCCCCOC(=O)CC[N+]1(CC#CI)CCCC1` [Compound 97, 1-[2-(decyloxycarbonyl)]ethyl-1-(3-iodopropargyl)-pyrrolidinium 4-methylbenzenesulfonate], the MIC in assay [1] (setting [5]) was 250 µg/mL; in assay [1] (setting [6]), 500 µg/mL; in assay [2] (setting [11]), 16 µg/mL; in assay [2] (setting [7]) it was 32 µg/mL; in assay [3] (setting [8]), 8 µg/mL; in assay [3] (setting [9]), 16 µg/mL. In addition, the MIC in assay [4] (setting [10]) was 16 µg/mL.

As to `CCCCCCCCCCCCCCCC[N+]1(CC#CI)CCCC1` [Compound 80, 1-hexadecyl-1-(3-iodopropargyl)-pyrrolidinium bromide], the MIC in assay [1] (M9G media) is given as 16 ppm; in assay [1] (TSB media) it was 125 ppm; in assay [2] (M9G media) it was 2 ppm; in assay [2] (TSB media) it was 8 ppm; in assay [3] (M9G media) it was 0.5 ppm; in assay [3] (TSB media) it was 0.5 ppm. Besides, the MIC in assay [4] turned out to be 1 ppm.

In the case of `CCCCCCCCCCCCCCCCCC[N+]1(CC#CI)CCCC1` [Compound 16, t-octadecyl-1-(3-iodopropargyl)-pyrrolidinium 4-methylbenzenesulfonate], the MIC in assay [1] (setting [5]) is 500 µg/mL; in assay [1] (setting [6]), 500 µg/mL; in assay [2] (setting [11]), 16 µg/mL; in assay [2] (setting [7]) it was 63 µg/mL; in assay [3] (setting [8]), 1 µg/mL; in assay [3] (setting [9]), 1 µg/mL. Further, the MIC in assay [4] (setting [10]) was found to be 32 µg/mL.

In the case of `OCCCCCCC[N+]1(CC#CI)CCCC1` [Compound 4, 1-(7-hydroxyheptyl)-1-(3-iodopropargyl)-pyrrolidinium 4-methybenzenesulfonate], the MIC was greater than 500 µg/mL in assay [1] (setting [5]); greater than 500 µg/mL in assay [1] (setting [6]); greater than 500 µg/mL in assay [2] (setting [11]); 500 µg/mL in assay [2] (setting [7]); 500 µg/mL in assay [3] (setting [8]); 500 µg/mL in assay [3] (setting [9]). In addition, the MIC in assay [4] (setting [10]) stood at 250 µg/mL.

In the case of `CCCCCCCCCCCCCCC[N+]1(CC#CI)CCOCC1` [Compound 88, 4-pentadecyl-4-(3-iodopropargyl)-morpholinium methanesulfonate], the MIC was 8 µg/mL in assay [1] (setting [5]); 32 µg/mL in assay [1] (setting [6]); 2 µg/mL in assay [2] (setting [11]); 4 µg/mL in assay [2] (setting [7]); 0.25 µg/mL in assay [3] (setting [8]); 0.25 µg/mL in assay [3] (setting [9]). Further, in assay [4] (setting [10]), the MIC came to 4 µg/mL.

For `OCC[N+]1(CC#CI)CCCC1` [Compound 1, 1-(2-hydroxyethyl)-1-(3-iodopropargyl)-pyrrolidinium 4-methylbenzenesulfonate], the MIC in assay [1] (setting [5]) was greater than 250 µg/mL; in assay [1] (setting [6]) it was 125 µg/mL; in assay [2] (setting [7]), greater than 250 µg/mL; in assay [3] (setting [8]) it was 16 µg/mL; in assay [3] (setting [9]), 32 µg/mL; in assay [4] (setting [10]), greater than 250 µg/mL.

As for `CCCCCCCCCCCC[N+]1(CC#CI)CCCC1` [Compound 13, 1-dodecyl-1-(3-iodopropargyl)-pyrrolidinium 4-methylbenzenesulfonate], the MIC in assay [1] (setting [5]) came to 32 µg/mL; in assay [1] (TSB media), 250 ppm; in assay [2] (M9G media), 32 ppm; in assay [2] (TSB media), 32 ppm; in assay [3] (M9G media), 1 ppm; in assay [3] (TSB media), 16 ppm. Also, in assay [4], the MIC came to 16 ppm.
